Measurements taken from patent US20230233736A1, “ANTIMICROBIAL FORMULATIONS COMPRISING SILICONE” (AMICOAT AS, priority 2020, published 2023).
Values after ≈ are worked out from the molar mass of the structure shown.

Legend:
[1] = test system: Trichophyton mentagrophytes; assay: MIC microbroth dilution (CLSI); type: cell-based; conditions: G.R. Micro collection
[2] = test system: E. coli; assay: Antimicrobial assay, Table 5; type: cell-based
[3] = test system: Methicillin resistant Staphylococcus epidermidis (MRSE) strain ATCC 27626; conditions: Table 5; strain ATCC 27626
[4] = test system: Corynebacterium jeikeium; type: cell-based
Excerpt: (§1) Cation-adjusted Mueller-Hinton broth (Oxoid Ltd., Basingstoke, UK and Trek Diagnostic Systems Ltd., East Grinstead, UK) (supplemented with 5% laked horse blood for Streptococcus spp., Corynebacterium jeikeium and Listeria monocytogenes) was used for aerobic bacteria, with an initial inoculum of approximately 10^5 colony-forming units (CFU)/m L.

[5] = test system: Staphylococcus epidermidis; type: cell-based
Excerpt: as §1

[6] = test system: Staphylococcus haemolyticus; type: cell-based
Excerpt: as §1

[7] = test system: Enterococcus gallinarum; assay: MIC microbroth dilution (CLSI); type: cell-based; conditions: vancomycin-resistant (VanC) clinical isolate
Excerpt: as §1

[8] = test system: Staphylococcus saprophyticus; assay: MIC microbroth dilution (CLSI); type: cell-based; conditions: antibiotic susceptible clinical isolate
Excerpt: as §1

[9] = test system: Enterococcus faecalis; type: cell-based; conditions: vancomycin-resistant (VanB) clinical isolate
Excerpt: as §1
(§2) To evaluate whether freezing affected the activity of the peptides some MIC determinations were repeated using plates containing freshly-prepared Mueller-Hinton broth.

[10] = test system: P. aeruginosa; assay: Antimicrobial assay, Table 5; type: cell-based
[11] = test system: Clostridium perfringens; conditions: antibiotic-susceptible clinical isolate
[12] = test system: Staphylococcus aureus FDA486; assay: Murine skin infection model, topical treatment; type: in vivo, mice
Procedure: (§3) The skin of mice was infected with Staphylococcus aureus or Streptococcus pyogenes and subsequently given a total of three treatments at three hourly intervals. Three hours after the last treatment, skin biopsies were collected and the number of colony forming units (CFUs) present in the skin sample was determined. Results are shown in FIGS. 1 and 2, expressed as the number of colony forming units per mouse.
In experiment 1 (FIG. 1), compound 2 was applied to the murine skin as part of either a cream or a gel containing 2% (w/w) of compound 2. The same cream or gel without compound 2 was used as a negative control (placebo).
as §3, with “3, 4” for “1”, “5” for “2,”
In experiment 1 (FIG. 3), compound 7 was applied to the murine skin as part of either a cream or a gel containing 2% (w/w) of compound 7. The same cream or gel without compound 7 was used as a negative control (placebo). Bactroban 2% cream was used as a positive control.
In experiment 3 (FIG. 5), compound 8 was applied in a 2% cream formulation on a Staphylococcus aureus FDA 486 infection in the murine skin infection model. A placebo cream and two known antibacterials, “Fucidin (fucidic acid) ointment 2%” and “Bactroban (mupericin) cream 2%” were used as controls.

[13] = test system: Candida tropicalis; assay: MIC microbroth dilution (CLSI); type: cell-based; conditions: ATCC750 - reference strain
[14] = test system: C. albicans; assay: Antimicrobial assay, Table 5; type: cell-based
[15] = test system: Cryptococcus neoformans; assay: MIC microbroth dilution (CLSI); type: cell-based; conditions: G.R. Micro collection
[16] = test system: S. pyogenes; assay: Antimicrobial assay, Table 5; type: cell-based
[17] = test system: Methicillin resistant Staphylococcus aureus (MRSA) strain ATCC 33591; conditions: Table 5; strain ATCC 33591
[18] = test system: Staphylococcus aureus, strain ATCC 25923; conditions: Table 5; strain ATCC 25923
[19] = test system: Candida (Issatchenkia) krusei
[20] = test system: Streptococcus pyogenes; assay: Murine skin infection model, topical treatment; type: in vivo, mice; conditions: FIG. 4, Streptococcus pyogenes CS 301
Procedure: as §3
In experiment 2 (FIG. 2), compound 2 was applied in two different concentrations, as either a 1% or a 2% gel. A placebo gel and a known antibacterial “bactroban” were used as controls.
as §3, with “3, 4” for “1”, “5” for “2,”
In experiment 2 (FIG. 4), compound 7 was applied in two different concentrations, as either a 1% or a 2% gel. A placebo gel and a known antibacterial “bactroban (mupericin)” were used as controls.

[21] = test system: Candida parapsilosis
[22] = test system: Microsporum canis; assay: MIC microbroth dilution (CLSI); type: cell-based; conditions: G.R. Micro collection
[23] = test system: Streptococcus agalactiae; type: cell-based
Excerpt: as §1

[24] = test system: Klebsiella aerogenes; type: cell-based
Excerpt: as §1

[25] = test system: Enterobacter sp; type: cell-based
Excerpt: as §1

[26] = test system: Streptococcus pyogenes; type: cell-based
Excerpt: as §1

[27] = test system: Morganella morganii; type: cell-based
Excerpt: as §1

[28] = test system: Enterococcus faecium; type: cell-based
Excerpt: as §1

[29] = test system: Group G Streptococcus; type: cell-based
Excerpt: as §1

[30] = test system: Stenotrophomonas maltophilia; assay: MIC microbroth dilution (CLSI); type: cell-based; conditions: antibiotic-susceptible clinical isolate
Excerpt: as §1

[31] = test system: Shigella sp; assay: MIC microbroth dilution (CLSI); type: cell-based; conditions: antibiotic-susceptible clinical isolate
Excerpt: as §1

[32] = test system: Salmonella sp; assay: MIC microbroth dilution (CLSI); type: cell-based
Excerpt: as §1

[33] = test system: Listeria monocytogenes; assay: MIC microbroth dilution (CLSI); type: cell-based; conditions: antibiotic-susceptible clinical isolate
Excerpt: as §1

[34] = test system: Staphylococcus aureus; type: cell-based
Excerpt: as §1, §2

[35] = test system: Propionibacterium acnes; assay: MIC microbroth dilution (CLSI); type: cell-based
Procedure: Supplemented Brucella broth (SBB) was used for the anaerobic strains with an inoculum of approximately 10^6 CFU/mL. SBB is a broth consisting of 1% peptone, 0.5% ‘Lab-lemco’, 1% glucose and 0.5% sodium chloride supplemented with 5 μg/L haemin and 1 μg/L vitamin K (both obtained from Sigma Aldrich Ltd.) Yeast and filamentous fungal MIC were performed in MOPS buffered RPMI 1640 medium (MOPS buffer obtained from Sigma Aldrich Ltd., RPMI 1640 obtained from Invitrogen Ltd, Paisley, Scotland). The yeast inocula were in the range 7.5×10^2-4×10^3 CFU/mL and the filamentous fungi approximately 8×10^3-1×10^5 CFU/mL
MICs were determined as described in Example 2.

[36] = test system: Trichophyton interdigitale; assay: MIC microbroth dilution (CLSI); type: cell-based; conditions: G.R. Micro collection
[37] = test system: Aspergillus niger; assay: MIC microbroth dilution (CLSI); type: cell-based; conditions: G.R. Micro collection
[38] = antibiotic-susceptible clinical isolate

## CC(C)NC(=O)[C@H](CCCNC(=N)N)NC(=O)[C@H](Cc1c(C(C)(C)C)[nH]c2c(C(C)(C)C)cc(C(C)(C)C)cc12)NC(=O)[C@@H](N)CCCNC(=N)N [Compound 7]
[1]
  MIC: 8 mg/L (≈ 11 µM)
[2]
  E. coli: 7 mg/L
[3]
  MRSE: <2 mg/L
[4]
  MIC: 8 mg/L (≈ 11 µM)
[5]
  MIC: 4 mg/L (≈ 5.51 µM)
[6]
  MIC: 4 mg/L (≈ 5.51 µM)
[7]
  MIC: 8 mg/L (≈ 11 µM)
[8]
  MIC: 2 mg/L (≈ 2.75 µM)
[9]
  MIC: ≥128 mg/L
[10]
  P. aeruginosa: 7 mg/L
[11]
  MIC: ≥128 mg/L
[12]; FIG. 3, cream or gel 2% (w/w), three treatments, compared to placebo
  number of colony forming units (CFU) in skin biopsy: number of CFUs was reduced
[13]
  MIC: 4 mg/L (≈ 5.51 µM)
[14]
  C. albicans: 25 mg/L
[15]
  MIC: 8 mg/L (≈ 11 µM)
[16]
  S. pyogenes: <2 mg/L
[17]
  MRSA: <2 mg/L
[18]
  S. aureus: <2 mg/L
[19]
  MIC: 8 mg/L (≈ 11 µM)
[20]
  number of CFUs, 2% gel compared with 1% gel: more effective than the gel containing only 1% of compound 7
[20]; 1% or 2% gel
  number of colony forming units (CFU) in skin biopsy: more effective at reducing the number of CFUs from a Streptococcus pyogenes CS 301 infection than the placebo gel or the bactroban

## CCCCCCNC(=O)[C@H](CCCNC(=N)N)NC(=O)[C@H](Cc1c(C(C)(C)C)[nH]c2c(C(C)(C)C)cc(C(C)(C)C)cc12)NC(=O)[C@@H](N)CCCNC(=N)N [Compound 8]
[21]
  MIC: 8 mg/L (≈ 10.4 µM)
[1]
  MIC: 4 mg/L (≈ 5.21 µM)
[2]
  E. coli: 5 mg/L
[3]
  MRSE: <1 mg/L
[22]
  MIC: 4 mg/L (≈ 5.21 µM)
[23]
  MIC: 8 mg/L (≈ 10.4 µM)
[24]
  MIC: 8 mg/L (≈ 10.4 µM)
[25]
  MIC: 8 mg/L (≈ 10.4 µM)
[26]
  MIC: 8 mg/L (≈ 10.4 µM)
[27]
  MIC: 8 mg/L (≈ 10.4 µM)
[28]
  MIC: 4 mg/L (≈ 5.21 µM)
[29]
  MIC: 8 mg/L (≈ 10.4 µM)
[6]
  MIC: 4 mg/L (≈ 5.21 µM)
[30]
  MIC: 4 mg/L (≈ 5.21 µM)
[31]
  MIC: 4 mg/L (≈ 5.21 µM)
[32]; [38]
  MIC: 8 mg/L (≈ 10.4 µM)
[32]; multi-drug resistant clinical isolate
  MIC: 8 mg/L (≈ 10.4 µM)
[33]
  MIC: 8 mg/L (≈ 10.4 µM)
[7]
  MIC: 4 mg/L (≈ 5.21 µM)
[8]
  MIC: 0.5 mg/L (≈ 0.651 µM)
[34]
  MIC: 4 mg/L (≈ 5.21 µM)
[10]
  P. aeruginosa: 5 mg/L
[35]; antibiotic-resistant clinical isolate
  MIC: 2 mg/L (≈ 2.6 µM)
[35]; [38]
  MIC: 4 mg/L (≈ 5.21 µM)
[12]; FIG. 5, 2% cream formulation
  number of colony forming units (CFU) in skin biopsy: more effective at reducing the number of CFUs than the placebo and fucidin or bactroban
[13]
  MIC: 4 mg/L (≈ 5.21 µM)
[14]
  C. albicans: 5 mg/L
[15]
  MIC: 2 mg/L (≈ 2.6 µM)
[36]
  MIC: 4 mg/L (≈ 5.21 µM)
[16]
  S. pyogenes: 2 mg/L
[17]
  MRSA: 2 mg/L
[18]
  S. aureus: 2 mg/L
[37]
  MIC: 4 mg/L (≈ 5.21 µM)
